Measurements taken from patent US20140213475A1, “METHODS OF DIAGNOSING CANCER USING EPIGENETIC BIOMARKERS” (University of Massachusetts, priority 2011, published 2014).

Assays:
[1] = test system: normal human fibroblasts (Tig-1); assay: BMI-1/Ring1B (PRC1) CAP body formation in normal fibroblasts after treatment with DNA demethylating agent, immunofluorescence and 1q12 DNA FISH; assay type: cell-based; conditions: for number of CAP positive cells: 0.2 ug/ml added fresh daily
From the text: (§1) FIGS. 6A-6E. […] FIG. 6C is a photomicrograph showing that longer treatment (8 days total) results in aberrant expression of Sat II RNA from other loci that are not associated with BMI-1 bodies.
(§2) Importantly, aberrant Sat II RNA foci also appeared with longer term 5-aza-2d treatment, and importantly from sites distinct from 1q12 bearing the accumulated BMI-1 bodies (FIG. 6C). Aberrant Sat II expression was not seen in control or 1 day treated cells, was rare on day 3 and in ˜5-10% of cells by day 8. These findings reveal significant mechanistic insight into why PcG proteins so markedly accumulate at 1q12 in cancer but not normal cells, and provide important evidence of a link between two intensely studied areas of cancer epigenetics, DNA methylation and polycomb proteins.
(§3) Twenty two cell lines were examined in this study (list in Supplement), and grown in conditions recommended by suppliers (ATCC, Cambrex, and Coriell). 5-azacytidine (6 mM) and 5-aza-2′deoxycytidine (0.2 ug/ml) was added fresh daily to asynchronously growing cultures and refreshed every day. Our standard fixation protocols have been detailed previously (Johnson et al., 1991; Tam et al., 2002), and summarized in the Supplement. Human effusions were fixed as for cultured cells and tissue blocks were cryosectioned onto cold glass slides (HistoBond+), and stored at −80 briefly until fixation. Of four fixations tested (Supplement) the one that gave best results was brief triton extraction followed by paraformaldehyde fixation and storage in ETOH.
Simultaneous DNA/RNA and antibody detection: Most antibodies were used prior to RNA or DNA hybridization. Briefly, slides were incubated in the appropriate dilution of primary antibody in 1% BSA, 1xPBS and 1 U/ul RNasin, for 1 hour at 37 C. Slides were washed, and immunodetection was performed using 1:500 dilution of appropriately conjugated (Alexa 488 or Alexa 594, Invitrogen) secondary (anti-goat, mouse or rabbit) antibody, in 1×PBS with 1% BSA. The antibody signal is fixed in 4% paraformaldehyde for 10 min prior to hybridization (performed as detailed above), and all slides were counter stained with DAPI. Vectashield (Vector Labs) was used as mounting media for all fluorescence imaging.

[2] = test system: normal human fibroblasts (Tig-1); assay: Aberrant Sat II RNA foci in normal fibroblasts after treatment with DNA demethylating agent, RNA FISH; assay type: cell-based
From the text: as §1, §2, §3
Sat2-24 nt LNA was used for most images unless otherwise indicated. Several methods of Sat 2 probe labeling and detection were tested (see below). RNA-specific hybridization was carried out under non-denaturing conditions where the DNA was not accessible. Oligos were usually hybridized at 15% formamide conditions, but were also compared to higher stringency hybridizations at 40% and 50% formamide. […]

Sat II on Chromosome 1 = conditions: Ji et al., 1997; cited from earlier work

Nc1ncn([C@H]2C[C@H](O)[C@@H](CO)O2)c(=O)n1 [5-aza-2d, 5-aza-2′-deoxycytidine]
number of CAP bodies per cell ([1]; Day 1 of treatment): ~2 | number of CAP positive cells ([1]; Day 1 of treatment): 15% | number of CAP positive cells ([1]; Day 3 of treatment): 52% | number of CAP bodies per cell ([1]; Day 8 of treatment): ~4 | number of CAP positive cells ([1]; Day 8 of treatment): 80% | aberrant Sat II expression (Sat II RNA foci) ([2]; 1 day treated cells): not seen | aberrant Sat II expression (Sat II RNA foci) ([2]; day 3 of treatment): rare | aberrant Sat II expression (Sat II RNA foci), cells positive ([2]; day 8 of treatment): 5-10 % of cells | demethylation of Sat II on Chromosome 1 (Sat II on Chromosome 1): effectively demethylate Sat II on Chromosome 1
